{"source": "patent US20230210864A1", "about": "“AGENT FOR PROMOTING CORNEAL ENDOTHELIAL CELL ADHESION” (Senju Pharmaceutical Co., Ltd., priority 2007, published 2023)", "key": {"[1]": {"system": "human corneal endothelial cells", "experiment": "Primary culture of human corneal endothelial cells with Y-27632, phase contrast observation", "format": "cell-based", "conditions": "Y-27632 10 μM", "protocol": "Of human corneal tissues obtained from the US eye bank, the central part (diameter 7 mm) had been used for corneal transplantation and the remaining surrounding corneal tissue was used. The Descemet's membrane with corneal endothelial cells adhered thereto was separated. For the ROCK inhibitor(+) group, the Descemet's membrane was placed in a medium for corneal endothelium added with Y-27632 (10 μM) and incubated under the conditions of 37° C., 5% CO2 for 10 min. For the ROCK inhibitor(−) group, the membrane was placed in a medium for corneal endothelium without addition of Y-27632 and incubated for 10 min under the same conditions. As the medium for corneal endothelium, the same culture medium as in Example 1 was used. The Descemet's membrane after the incubation was incubated together with Dispase II (1.2 U/ml, Roche Applied Science) under the conditions of 37° C., 5% CO2 for 45 min, and the corneal endothelial cells were mechanically separated by a pipetting operation. The separated corneal endothelial cells were centrifuged and stirred in the media for corneal endothelium with Y-27632(+) and Y-27632(−) to the same concentration, and the cells were seeded on a 48 well plate pre-treated with an FNC coating mix (Athena ES) at a density of about 10000 cells per well. […]"}, "[2]": {"system": "rabbit corneal endothelial cells", "experiment": "Culture of rabbit corneal endothelial cells with Y-27632, cells counted by MTS assay", "format": "cell-based", "conditions": "primary culture, Y-27632 10 μM", "protocol": "From a rabbit corneal tissue isolated immediately after euthanasia, Descemet's membrane with corneal endothelial cells attached thereto was separated. The Descemet's membrane was incubated together with Dispase II (1.2 U/ml, Roche Applied Science) under the conditions of 37° C., 5% CO2 for 45 min, and the corneal endothelial cells were mechanically separated by a pipetting operation. The separated corneal endothelial cells were centrifuged, the cells of a ROCK inhibitor(+) group were stirred in a medium for corneal endothelium added with Y-27632 (10 μM) and the cells of a ROCK inhibitor(−) group were stirred in a medium for corneal endothelium without addition of Y-27632, to the same concentration, and the cells were seeded on a 96 well plate at a density of about 2000 cells per well. As a medium for corneal endothelium, a culture medium (DMEM, Gibco Invitrogen) added with 1% fetal bovine serum and […] bFGF (Gibco Invitrogen) was used. The plate was pre-treated with an FNC coating mix (Athena ES) for 10 min. […] From day 1 to day 3 after the start of the culture, the cells were counted every 24 hr by MTS ([3-(4,5-dimethylthiazol-2-yl)-5-(3-carboxymethoxyphenyl)-2-(4-sulfophenyl)-2H-tetrazolium]) assay using CellTiter 96 (registered trade mark) AQueous One Solution Cell Proliferation (Promega) (FIG. 2)."}, "[3]": {"system": "monkey corneal endothelial cells", "experiment": "Optimal concentration of Y-27632 for monkey corneal endothelial cells, viable cell count by CellTiter-Glo", "format": "cell-based, Macaca fascicularis", "protocol": "Monkey corneal endothelial cells (primary culture) collected in the same manner as in Example 2 were placed in media for corneal endothelium each added with Y-27632 at 1, 10, 33 and 100 μM and a medium for corneal endothelium without addition of Y-27632, and stirred to the same concentration, and the cells were seeded on a 96 well plate at a density of about 2000 cells per well. At 24 hr from the start of the culture, viable cells were counted using CellTiter-Glo (registered trade mark, Promega) (FIG. 7)."}, "[4]": {"system": "monkey corneal endothelial cells", "experiment": "Cell morphology in passage culture of monkey corneal endothelial cells (phase contrast, phalloidin fluorescence staining)", "format": "cell-based, Macaca fascicularis", "conditions": "passage culture on slide glass", "protocol": "The Macaca fascicularis corneal endothelial cells passage-cultured in the same manner as in Example 6 were subcultured on a slide glass to a dilution of ¼. […] Furthermore, the corneal endothelial cells on the slide glass were fixed with 4% para-formaldehyde at room temperature for 10 min, and actin fiber was stained by phalloidin fluorescence staining (FIGS. 10A and 10B)."}, "[5]": {"system": "monkey corneal endothelial cells", "experiment": "Apoptosis of monkey corneal endothelial cells (flow cytometry with Annexin V and PI)", "format": "cell-based, Macaca fascicularis", "conditions": "Y-27632 10 μM, day 1 of the passage culture", "protocol": "The Macaca fascicularis corneal endothelial cells passage-cultured in the same manner as in Example 6 were subcultured to a dilution of ¼. A medium for corneal endothelium added with Y-27632 (10 μM) was used for the ROCK inhibitor(+) group and a medium for corneal endothelium without addition of Y-27632 was used for the ROCK inhibitor(−) group. On day 1 of the passage culture, all the cells including those in the medium were collected using 0.05% trypsin and subjected to flow cytometry using Annexin V and PI (Propidium Iodide), and apoptosis was examined (FIGS. 14 and 15)."}, "[6]": {"system": "monkey corneal endothelial cells", "experiment": "Cell cycle of monkey corneal endothelial cells (anti-Ki67 antibody immunostaining and flow cytometry)", "format": "cell-based, Macaca fascicularis", "conditions": "Y-27632 10 μM", "protocol": "The Macaca fascicularis corneal endothelial cells passage-cultured in the same manner as in Example 6 were subcultured on a slide glass to a dilution of ¼. A medium for corneal endothelium added with Y-27632 (10 μM) was used for the ROCK inhibitor(+) group and a medium for corneal endothelium without addition of Y-27632 was used for the ROCK inhibitor(−) group. On days 1, 2 and 14 of the passage culture, the corneal endothelial cells on the slide glass were fixed with 4% para-formaldehyde at room temperature for 10 min, and immunostained with anti-Ki67 antibody (FIG. 11). Similarly, moreover, the Macaca fascicularis corneal endothelial cells were passage-cultured to a dilution of ¼ in each of the ROCK inhibitor(+) group and ROCK inhibitor(−) group. On days 1 and 2 of the passage culture, the cells were collected using 0.05% trypsin and subjected to flow cytometry using anti-Ki67 antibody, and the cell cycle was examined (FIGS. 12 and 13)."}, "[7]": {"conditions": "days 1 and 2 of the passage culture"}}, "data": [{"compound": "CC(N)[C@H]1CC[C@H](C(=O)Nc2ccncc2)CC1", "note": "(single isomer, unassigned; (+)) [Y-27632, (+)-trans-4-(1-aminoethyl)-1-(4-pyridylcarbamoyl)cyclohexane]", "values": [{"measurement": "cell layer morphology and density on day 7 after the start of the culture", "setting": "[1]", "result": "a confluent and highly dense single cell layer consisting of cells (uniform polygonal cells) similar to normal corneal endothelial cells was formed"}, {"measurement": "cell adhesion in 24 hr (day 1) after cell seeding as compared to the ROCK inhibitor(−) group", "setting": "[2]", "result": "about 2.8 fold"}, {"measurement": "cell growth at day 3 when the cells reached confluent, difference from ROCK inhibitor(−) group", "setting": "[2]; day 3", "result": "a significant difference was not found"}, {"measurement": "most effective concentration for monkey corneal endothelial cells", "setting": "[3]; of 1, 10, 33 and 100 μM, 24 hr", "result": 10, "unit": "µM"}, {"measurement": "number of cells that adhered onto the plate at 24 hr, compared to medium without Y-27632 and media with other concentrations", "setting": "[3]; primary culture, 10 μM Y-27632 (1, 10, 33 and 100 μM tested)", "result": "significantly high"}, {"measurement": "actin stress fiber (phalloidin fluorescence staining)", "setting": "[4]; 24 hr", "result": "actin stress fiber was clearly observed"}, {"measurement": "cell adhesion and morphology at 24 hr after the passage (phase contrast)", "setting": "[4]; dilution ¼", "result": "adhesion of the cells onto the slide glass increased, flattening to corneal endothelial cell-like cells was promoted, and aggregation of cells also increased"}, {"measurement": "number of apoptotic cells per 1×10^4 cells, compared to ROCK inhibitor(−) group", "setting": "[5]", "result": "significant decrease"}, {"measurement": "ratio of apoptotic cells to the entire cells, compared to ROCK inhibitor(−) group", "setting": "[5]", "result": "significant decrease"}, {"measurement": "number of Ki67 positive cells by immunostaining, compared to ROCK inhibitor(−) group", "setting": "[6]; day 14, almost confluent", "result": "less than that of the ROCK inhibitor(−) group"}, {"measurement": "Ki67 positive cells by flow cytometry, compared to ROCK inhibitor(−) group", "setting": "[6]; [7]", "result": "contained many Ki67 positive cells"}, {"measurement": "Ki67 positive cells by immunostaining, compared to ROCK inhibitor(−) group", "setting": "[6]; [7]", "result": "contained many Ki67 positive cells"}]}]}
